Laboratory results published in PubChem BioAssay AID2060505 (Molecular Pharmacology Branch, DTP, NCI, 2025).

Tested on: 633275-114-R-J1-PDC complex spheroids, viability
Test: Anticancer human tumor 633275-114-R-J1-PDC patient-derived endometrial adenocarcinoma cell line growth inhibition [GQUAD]
Conditions: for IC50: curve of first compound; for viability, T/C: stronger effect = lower value
Summary of the method: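 Viability of tumor cells grown as complex spheroids with endothelial and stromal cells, exposed to drug combinations. Top concentration at or near clinical Cmax (else 10 microM), diluted in half-log increments.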

[1] = second compound 0.0316 µM, first compound 0.0316 µM
[2] = second compound 0.0316 µM, first compound 0.1 µM
[3] = second compound 0.0316 µM, first compound 0.316 µM
[4] = second compound 0.0316 µM, first compound 1 µM
[5] = second compound 0.0316 µM, first compound 3.16 µM
[6] = second compound 0.0316 µM, first compound 10 µM
[7] = second compound 0.1 µM, first compound 0.0316 µM
[8] = second compound 0.1 µM, first compound 0.1 µM
[9] = second compound 0.1 µM, first compound 0.316 µM
[10] = second compound 0.1 µM, first compound 1 µM
[11] = second compound 0.1 µM, first compound 3.16 µM
[12] = second compound 0.1 µM, first compound 10 µM
[13] = second compound 0.316 µM, first compound 0.0316 µM
[14] = second compound 0.316 µM, first compound 0.1 µM
[15] = second compound 0.316 µM, first compound 0.316 µM
[16] = second compound 0.316 µM, first compound 1 µM
[17] = second compound 0.316 µM, first compound 3.16 µM
[18] = second compound 0.316 µM, first compound 10 µM
[19] = second compound 1 µM, first compound 0.0316 µM
[20] = second compound 1 µM, first compound 0.1 µM
[21] = second compound 1 µM, first compound 0.316 µM
[22] = second compound 1 µM, first compound 1 µM
[23] = second compound 1 µM, first compound 3.16 µM
[24] = second compound 1 µM, first compound 10 µM
[25] = second compound 3.16 µM, first compound 0.0316 µM
[26] = second compound 3.16 µM, first compound 0.1 µM
[27] = second compound 3.16 µM, first compound 0.316 µM
[28] = second compound 3.16 µM, first compound 1 µM
[29] = second compound 3.16 µM, first compound 3.16 µM
[30] = second compound 3.16 µM, first compound 10 µM
[31] = second compound 10 µM, first compound 0.0316 µM
[32] = second compound 10 µM, first compound 0.1 µM
[33] = second compound 10 µM, first compound 0.316 µM
[34] = second compound 10 µM, first compound 1 µM
[35] = second compound 10 µM, first compound 3.16 µM
[36] = second compound 10 µM, first compound 10 µM
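Note: spheroids exposed to the agents for seven days.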
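Throughout, for viability, T/C: percent of DMSO vehicle control viability which is 100%.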

Question: How did the IC50 (second compound 0.0316 µM) turn out when `CCCS(=O)(=O)Nc1ccc(F)c(C(=O)c2c[nH]c3ncc(-c4ccc(Cl)cc4)cc23)c1F` + CN(C)c1ccc(Nc2c3ccc(NC(=O)CCN4CCCC4)cc3nc3cc(NC(=O)CCN4CCCC4)ccc23)cc1 was run?
Answer: 8890 nM

Question: What about the IC50 (second compound 0.1 µM) of the same compound?
Answer: 9280 nM

Question: What about the IC50 (second compound 0.316 µM) of the same compound?
Answer: 9530 nM

Question: What about the IC50 (second compound 1 µM) of the same compound?
Answer: 8320 nM

Question: What about the IC50 (second compound 3.16 µM) of the same compound?
Answer: 5040 nM

Question: What about the IC50 (second compound 10 µM) of the same compound?
Answer: < 31.6 nM

Question: And the viability, T/C [1]?
Answer: 93.3%

Question: What about the viability, T/C [2] of the same compound?
Answer: 97.6%

Question: What about the viability, T/C [3] of the same compound?
Answer: 98.5%

Question: What about the viability, T/C [4] of the same compound?
Answer: 100%

Question: What about the viability, T/C [5] of the same compound?
Answer: 91%

Question: And the viability, T/C [6]?
Answer: 45.2%

Question: And the viability, T/C [7]?
Answer: 90.6%

Question: What about the viability, T/C [8] of the same compound?
Answer: 109%

Question: And the viability, T/C [9]?
Answer: 103%

Question: What about the viability, T/C [10] of the same compound?
Answer: 103%

Question: What about the viability, T/C [11] of the same compound?
Answer: 91.4%

Question: What about the viability, T/C [12] of the same compound?
Answer: 46.8%

Question: And the viability, T/C [13]?
Answer: 100%

Question: And the viability, T/C [14]?
Answer: 108%

Question: What about the viability, T/C [15] of the same compound?
Answer: 103%

Question: What about the viability, T/C [16] of the same compound?
Answer: 111%

Question: What about the viability, T/C [17] of the same compound?
Answer: 85.8%

Question: And the viability, T/C [18]?
Answer: 48.4%

Question: And the viability, T/C [19]?
Answer: 97.1%

Question: What about the viability, T/C [20] of the same compound?
Answer: 106%

Question: What about the viability, T/C [21] of the same compound?
Answer: 103%

Question: What about the viability, T/C [22] of the same compound?
Answer: 99.1%

Question: What about the viability, T/C [23] of the same compound?
Answer: 83.9%

Question: And the viability, T/C [24]?
Answer: 43.4%

Question: What about the viability, T/C [25] of the same compound?
Answer: 92.5%

Question: What about the viability, T/C [26] of the same compound?
Answer: 89%

Question: What about the viability, T/C [27] of the same compound?
Answer: 94.8%

Question: What about the viability, T/C [28] of the same compound?
Answer: 94.3%

Question: And the viability, T/C [29]?
Answer: 69%

Question: What about the viability, T/C [30] of the same compound?
Answer: 22.3%

Question: What about the viability, T/C [31] of the same compound?
Answer: 33.7%

Question: And the viability, T/C [32]?
Answer: 31.8%

Question: What about the viability, T/C [33] of the same compound?
Answer: 31.6%

Question: And the viability, T/C [34]?
Answer: 33.6%

Question: What about the viability, T/C [35] of the same compound?
Answer: 25.1%

Question: What about the viability, T/C [36] of the same compound?
Answer: 7.58%

Question: Which results are given for `O=C(NO)c1cnc(N2CCN(S(=O)(=O)c3ccc4ccccc4c3)CC2)nc1` + Cc1[nH]c2ccc(F)cc2c1-c1nc2c3cccnc3c3ncccc3c2[nH]1?
Answer: IC50 (second compound 0.0316 µM): 371 nM; IC50 (second compound 0.1 µM): 527 nM; IC50 (second compound 0.316 µM): 574 nM; IC50 (second compound 1 µM): 492 nM; IC50 (second compound 3.16 µM): 336 nM; IC50 (second compound 10 µM): 362 nM; viability, T/C [1]: 88.1%; viability, T/C [2]: 77.9%; viability, T/C [3]: 51.7%; viability, T/C [4]: 29%; viability, T/C [5]: 16.9%; viability, T/C [6]: 5.26%; viability, T/C [7]: 91.7%; viability, T/C [8]: 83.9%; viability, T/C [9]: 63.5%; viability, T/C [10]: 32.1%; viability, T/C [11]: 16%; viability, T/C [12]: 3.49%; viability, T/C [13]: 82.3%; viability, T/C [14]: 86.2%; viability, T/C [15]: 62.4%; viability, T/C [16]: 34.7%; viability, T/C [17]: 18.5%; viability, T/C [18]: 1.56%; viability, T/C [19]: 91.3%; viability, T/C [20]: 77.2%; viability, T/C [21]: 57.9%; viability, T/C [22]: 37%; viability, T/C [23]: 17.2%; viability, T/C [24]: 1.48%; viability, T/C [25]: 72.3%; viability, T/C [26]: 60.2%; viability, T/C [27]: 52.6%; viability, T/C [28]: 35.2%; viability, T/C [29]: 15.8%; viability, T/C [30]: 2.67%; viability, T/C [31]: 62.1%; viability, T/C [32]: 58.3%; viability, T/C [33]: 54.8%; viability, T/C [34]: 32.5%; viability, T/C [35]: 17.8%; viability, T/C [36]: 3.92%

Question: With `CC1COCCN1c1cc(-c2ccnn2C)c2ccnc(-c3ccn[nH]3)c2n1` (stereo unspecified) + Cc1[nH]c2ccc(F)cc2c1-c1nc2c3cccnc3c3ncccc3c2[nH]1 as the compound, how does the IC50 (second compound 0.0316 µM) read?
Answer: 146 nM

Question: What about the IC50 (second compound 0.1 µM) of the same compound?
Answer: 156 nM

Question: And the IC50 (second compound 0.316 µM)?
Answer: 191 nM

Question: What about the IC50 (second compound 1 µM) of the same compound?
Answer: 116 nM

Question: And the IC50 (second compound 3.16 µM)?
Answer: 70.4 nM

Question: And the IC50 (second compound 10 µM)?
Answer: 74.8 nM

Question: What about the viability, T/C [1] of the same compound?
Answer: 77.3%

Question: What about the viability, T/C [2] of the same compound?
Answer: 56.4%

Question: What about the viability, T/C [3] of the same compound?
Answer: 37.1%

Question: What about the viability, T/C [4] of the same compound?
Answer: 27.7%

Question: What about the viability, T/C [5] of the same compound?
Answer: 21.9%

Question: What about the viability, T/C [6] of the same compound?
Answer: 16.8%

Question: And the viability, T/C [7]?
Answer: 80.5%

Question: And the viability, T/C [8]?
Answer: 57.5%

Question: And the viability, T/C [9]?
Answer: 38.3%

Question: What about the viability, T/C [10] of the same compound?
Answer: 26.3%

Question: And the viability, T/C [11]?
Answer: 21.4%

Question: What about the viability, T/C [12] of the same compound?
Answer: 17%

Question: What about the viability, T/C [13] of the same compound?
Answer: 77.6%

Question: And the viability, T/C [14]?
Answer: 62.9%

Question: And the viability, T/C [15]?
Answer: 39%

Question: And the viability, T/C [16]?
Answer: 28.1%

Question: What about the viability, T/C [17] of the same compound?
Answer: 21.2%

Question: What about the viability, T/C [18] of the same compound?
Answer: 18.4%

Question: And the viability, T/C [19]?
Answer: 77.9%

Question: What about the viability, T/C [20] of the same compound?
Answer: 52.5%

Question: What about the viability, T/C [21] of the same compound?
Answer: 34.6%

Question: What about the viability, T/C [22] of the same compound?
Answer: 26.6%

Question: What about the viability, T/C [23] of the same compound?
Answer: 23%

Question: What about the viability, T/C [24] of the same compound?
Answer: 17.7%

Question: And the viability, T/C [25]?
Answer: 60.9%

Question: And the viability, T/C [26]?
Answer: 46.1%

Question: What about the viability, T/C [27] of the same compound?
Answer: 31.1%

Question: What about the viability, T/C [28] of the same compound?
Answer: 26.8%

Question: What about the viability, T/C [29] of the same compound?
Answer: 21.7%

Question: And the viability, T/C [30]?
Answer: 17.5%

Question: And the viability, T/C [31]?
Answer: 61%

Question: And the viability, T/C [32]?
Answer: 46.9%

Question: And the viability, T/C [33]?
Answer: 30.8%

Question: And the viability, T/C [34]?
Answer: 25.1%

Question: What about the viability, T/C [35] of the same compound?
Answer: 21.1%

Question: And the viability, T/C [36]?
Answer: 18.6%
